In article PMC7985297 (Communications Biology, 2021):
Several values for one entry are separate records, joined by “and”; a condition that tells them apart may be missing. Identical values can stand only once.

Legend:
LN95-D3 xenografts = assay: Growth of LN95-D3 CRPC xenografts in castrated male NSG mice; assay type: in vivo; details: for Tumor volume, individual animals (Fig. 7b): ATRA 5mg, in mm³ (unit assumed)
[1] = Body weight and tolerability in the xenograft study; assay type: in vivo, mice; details: ATRA 5mg
serum PSA = assay: Quantification of serum PSA (ELISA) in xenograft-bearing mice; assay type: in vivo; details: ATRA compared to placebo; on average; did not reach statistical significance
Experimental: Serum levels for total PSA were measured by a PSA ELISA kit (Anogen, Mississauga, ON) with a lower limit sensitivity of ~1 ng/mL. Whole blood was sampled from the tail vein on days indicated or by cardiac puncture immediately after euthanasia. The serum fraction was separated by centrifugation at 12,000 rpm for 3 min at room temperature and then stored at −20 °C until further analysis. Serum samples were diluted tenfold for the assay and were compared to calibration standards, according to the manufacturer’s protocol. The concentration of total PSA was determined by a VersaMax ELISA microplate reader by measuring absorbance at 450 nm with a reference wavelength of 650 nm.

CC1=C(/C=C/C(C)=C/C=C/C(C)=C/C(=O)O)C(C)(C)CCC1 [ATRA, all-trans retinoic acid]
tumor growth after 21 days of treatment (LN95-D3 xenografts; castrated mice, ATRA 5 mg 21-day release pellet, EPI-7170 30 mg/kg daily oral, relative to vehicle/placebo-control): significantly reduced
growth of LN95-D3 tumors, pilot study (LN95-D3 xenografts; mice bearing ATRA slow-release pellets compared to placebo): markedly reduced
Tumor volume, individual animals (Fig. 7b) (LN95-D3 xenografts; treatment duration 0 days): 24.32 and 14.61 and 31.83 and 56.34 and 20.55 and 20.28 and 50.07 and 32.48
Tumor volume, individual animals (Fig. 7b) (LN95-D3 xenografts; treatment duration 3 days): 55.84 and 24.48 and 48.26 and 128.17 and 47.08 and 28.39 and 67.63 and 51.78
Tumor volume, individual animals (Fig. 7b) (LN95-D3 xenografts; treatment duration 6 days): 83.34 and 43.04 and 71.44 and 190.56 and 74.31 and 35.31 and 102.14 and 93.49
Tumor volume, individual animals (Fig. 7b) (LN95-D3 xenografts; treatment duration 9 days): 133.91 and 53.07 and 85.22 and 295.56 and 122.11 and 47.93 and 142.91 and 132.75
Tumor volume, individual animals (Fig. 7b) (LN95-D3 xenografts; treatment duration 12 days): 206.68 and 57.46 and 89.96 and 435.8 and 154.08 and 63.14 and 159.59 and 153.66
Tumor volume, individual animals (Fig. 7b) (LN95-D3 xenografts; treatment duration 15 days): 291.35 and 84.16 and 118.21 and 658.17 and 325.4 and 102.18 and 255.62 and 266.01
Tumor volume, individual animals (Fig. 7b) (LN95-D3 xenografts; treatment duration 18 days): 379.83 and 117.24 and 202.18 and 871.57 and 503.37 and 170.47 and 377.34 and 331.83
Tumor volume, individual animals (Fig. 7b) (LN95-D3 xenografts; treatment duration 21 days): 564.91 and 139.55 and 232.06 and 1102.95 and 649.08 and 196.67 and 421.71 and 345.48
Body weight, individual animals (Fig. 7c) ([1]; treatment duration 0 days): 26.7 and 29.9 and 28.1 and 28.2 and 29.3 and 28.3 and 30.2 (2×)
Body weight, individual animals (Fig. 7c) ([1]; treatment duration 1 days, in g (unit assumed)): 26.8 and 30.1 and 28.1 and 27.9 and 29.3 and 28.7 and 29 and 29.8
Body weight, individual animals (Fig. 7c) ([1]; treatment duration 2 days): 26.7 and 29.8 and 27.6 (2×) and 28.9 and 28.8 and 29.1 and 29.4
Body weight, individual animals (Fig. 7c) ([1]; treatment duration 3 days): 25.9 and 29 and 25.6 and 26.8 and 28.1 and 28.3 (2×) and 28.9
Body weight, individual animals (Fig. 7c) ([1]; treatment duration 4 days, in g (unit assumed)): 25.2 and 28.9 and 27 and 27.1 and 29.1 and 28.5 and 27.5 and 28.7
Body weight, individual animals (Fig. 7c) ([1]; treatment duration 5 days, in g (unit assumed)): 23.9 and 28.3 and 26.5 and 27 and 28.5 and 28.2 and 26.8 and 27.8
Body weight, individual animals (Fig. 7c) ([1]; treatment duration 6 days, in g (unit assumed)): 23.9 and 27.9 and 26.1 and 26.5 and 28.2 and 27.4 and 26.8 and 28
Body weight, individual animals (Fig. 7c) ([1]; treatment duration 7 days): 23.9 and 27.5 (2×) and 25.7 and 26.4 and 28.1 and 26.9 and 27.6
Body weight, individual animals (Fig. 7c) ([1]; treatment duration 8 days, in g (unit assumed)): 23.1 and 27.9 and 25.6 and 26.6 and 28.2 and 27.4 and 25.9 and 27.6
Body weight, individual animals (Fig. 7c) ([1]; treatment duration 9 days): 22.3 and 27.6 and 25.3 (2×) and 26.2 and 28.4 and 27.3 and 27.7
Body weight, individual animals (Fig. 7c) ([1]; treatment duration 10 days): 22.1 and 28.3 and 24.9 and 26.3 (2×) and 27.9 and 25.2 and 27.4
Body weight, individual animals (Fig. 7c) ([1]; treatment duration 11 days, in g (unit assumed)): 22 and 28 and 24.2 and 26 and 27.8 and 25.3 and 24.7 and 27.2
Body weight, individual animals (Fig. 7c) ([1]; treatment duration 12 days, in g (unit assumed)): 21.9 and 27.9 and 24.6 and 26.1
reduction of PSA expression in sera, pilot study (serum PSA): 27%
